Measured values reported in publication PMC12162337, “Vitexicarpin suppresses colorectal and non-small cell lung cancer via selective inhibition of Anoctamin 1” (Frontiers in Pharmacology, 2025).

Assays:
Type in all cases: cell-based
CFTR = target: T1, CFTR (Homo sapiens, UniProt P13569); experiment: short-circuit current (Ussing chamber), forskolin-activated; complete block at […]
T1 construct: CFTR-expressing FRT cells

hERG channel = target: T2, hERG channel (Homo sapiens, UniProt Q12809); experiment: automated patch clamp (PatchLiner), hERG tail current
T2 construct: gene KCNH2; hERG-overexpressing HEK cells
T2 sequence (Q12809 whole entry): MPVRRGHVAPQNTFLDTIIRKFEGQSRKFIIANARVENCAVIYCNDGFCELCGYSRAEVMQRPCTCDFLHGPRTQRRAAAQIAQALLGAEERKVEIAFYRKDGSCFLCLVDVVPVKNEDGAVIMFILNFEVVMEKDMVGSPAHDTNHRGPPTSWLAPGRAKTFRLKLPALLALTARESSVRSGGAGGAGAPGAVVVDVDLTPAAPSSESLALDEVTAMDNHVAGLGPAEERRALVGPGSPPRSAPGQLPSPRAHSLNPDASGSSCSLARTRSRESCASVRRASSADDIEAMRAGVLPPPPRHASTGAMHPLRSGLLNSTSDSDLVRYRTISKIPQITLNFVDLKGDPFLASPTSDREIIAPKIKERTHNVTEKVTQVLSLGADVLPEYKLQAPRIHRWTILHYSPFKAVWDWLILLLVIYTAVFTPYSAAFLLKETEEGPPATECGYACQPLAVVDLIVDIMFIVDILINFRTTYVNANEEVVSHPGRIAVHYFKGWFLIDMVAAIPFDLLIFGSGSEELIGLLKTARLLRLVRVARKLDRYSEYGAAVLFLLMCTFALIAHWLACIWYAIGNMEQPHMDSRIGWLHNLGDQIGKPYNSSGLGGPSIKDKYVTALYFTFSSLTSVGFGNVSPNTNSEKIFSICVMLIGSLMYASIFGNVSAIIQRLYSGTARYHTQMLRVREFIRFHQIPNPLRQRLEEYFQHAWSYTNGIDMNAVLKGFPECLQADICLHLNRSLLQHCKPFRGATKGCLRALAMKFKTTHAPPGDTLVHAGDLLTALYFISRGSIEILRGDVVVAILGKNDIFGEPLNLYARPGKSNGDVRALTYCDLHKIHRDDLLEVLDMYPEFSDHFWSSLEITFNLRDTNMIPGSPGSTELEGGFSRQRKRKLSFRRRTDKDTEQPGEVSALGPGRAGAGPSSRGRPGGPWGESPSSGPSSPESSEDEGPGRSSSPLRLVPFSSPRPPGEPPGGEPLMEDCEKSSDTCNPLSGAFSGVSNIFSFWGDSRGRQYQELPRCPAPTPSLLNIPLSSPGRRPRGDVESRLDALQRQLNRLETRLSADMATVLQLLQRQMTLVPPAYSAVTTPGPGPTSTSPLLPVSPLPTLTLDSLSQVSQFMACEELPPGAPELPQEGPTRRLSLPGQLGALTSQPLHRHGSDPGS

[1] = target: T3, Anoctamin 1 (ANO1, TMEM16A) (Homo sapiens, UniProt Q5XXA6); experiment: YFP iodide-influx quenching assay and short-circuit current (Ussing chamber)
T3 construct: endogenous ANO1 in PC9-YFP cells; ANO1-expressing FRT cells
T3 sequence (Q5XXA6 1-986): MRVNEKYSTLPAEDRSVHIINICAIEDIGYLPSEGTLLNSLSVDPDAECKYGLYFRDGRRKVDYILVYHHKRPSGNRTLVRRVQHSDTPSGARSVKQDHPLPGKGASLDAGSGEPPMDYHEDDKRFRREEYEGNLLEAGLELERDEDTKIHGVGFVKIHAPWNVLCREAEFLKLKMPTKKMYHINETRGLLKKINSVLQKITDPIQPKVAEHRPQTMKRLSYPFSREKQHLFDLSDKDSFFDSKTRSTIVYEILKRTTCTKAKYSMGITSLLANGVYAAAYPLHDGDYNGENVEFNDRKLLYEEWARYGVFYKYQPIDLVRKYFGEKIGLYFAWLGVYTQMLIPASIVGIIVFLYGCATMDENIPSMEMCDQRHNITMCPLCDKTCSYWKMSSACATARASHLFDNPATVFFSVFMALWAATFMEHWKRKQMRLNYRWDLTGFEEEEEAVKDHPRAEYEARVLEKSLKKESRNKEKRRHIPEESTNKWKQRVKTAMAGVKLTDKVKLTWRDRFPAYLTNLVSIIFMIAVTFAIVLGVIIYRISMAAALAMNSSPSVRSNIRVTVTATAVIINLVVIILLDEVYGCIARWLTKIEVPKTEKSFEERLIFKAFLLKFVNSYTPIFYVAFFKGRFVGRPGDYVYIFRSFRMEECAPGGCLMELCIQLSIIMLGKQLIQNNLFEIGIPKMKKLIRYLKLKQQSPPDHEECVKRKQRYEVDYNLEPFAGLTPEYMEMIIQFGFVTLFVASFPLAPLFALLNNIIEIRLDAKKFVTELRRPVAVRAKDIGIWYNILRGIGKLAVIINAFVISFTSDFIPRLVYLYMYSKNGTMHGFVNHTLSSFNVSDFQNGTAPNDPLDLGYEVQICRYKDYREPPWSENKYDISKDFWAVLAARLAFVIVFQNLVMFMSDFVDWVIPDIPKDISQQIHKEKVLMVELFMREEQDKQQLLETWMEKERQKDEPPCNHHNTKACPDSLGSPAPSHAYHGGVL

T1 sequence (P13569 whole entry): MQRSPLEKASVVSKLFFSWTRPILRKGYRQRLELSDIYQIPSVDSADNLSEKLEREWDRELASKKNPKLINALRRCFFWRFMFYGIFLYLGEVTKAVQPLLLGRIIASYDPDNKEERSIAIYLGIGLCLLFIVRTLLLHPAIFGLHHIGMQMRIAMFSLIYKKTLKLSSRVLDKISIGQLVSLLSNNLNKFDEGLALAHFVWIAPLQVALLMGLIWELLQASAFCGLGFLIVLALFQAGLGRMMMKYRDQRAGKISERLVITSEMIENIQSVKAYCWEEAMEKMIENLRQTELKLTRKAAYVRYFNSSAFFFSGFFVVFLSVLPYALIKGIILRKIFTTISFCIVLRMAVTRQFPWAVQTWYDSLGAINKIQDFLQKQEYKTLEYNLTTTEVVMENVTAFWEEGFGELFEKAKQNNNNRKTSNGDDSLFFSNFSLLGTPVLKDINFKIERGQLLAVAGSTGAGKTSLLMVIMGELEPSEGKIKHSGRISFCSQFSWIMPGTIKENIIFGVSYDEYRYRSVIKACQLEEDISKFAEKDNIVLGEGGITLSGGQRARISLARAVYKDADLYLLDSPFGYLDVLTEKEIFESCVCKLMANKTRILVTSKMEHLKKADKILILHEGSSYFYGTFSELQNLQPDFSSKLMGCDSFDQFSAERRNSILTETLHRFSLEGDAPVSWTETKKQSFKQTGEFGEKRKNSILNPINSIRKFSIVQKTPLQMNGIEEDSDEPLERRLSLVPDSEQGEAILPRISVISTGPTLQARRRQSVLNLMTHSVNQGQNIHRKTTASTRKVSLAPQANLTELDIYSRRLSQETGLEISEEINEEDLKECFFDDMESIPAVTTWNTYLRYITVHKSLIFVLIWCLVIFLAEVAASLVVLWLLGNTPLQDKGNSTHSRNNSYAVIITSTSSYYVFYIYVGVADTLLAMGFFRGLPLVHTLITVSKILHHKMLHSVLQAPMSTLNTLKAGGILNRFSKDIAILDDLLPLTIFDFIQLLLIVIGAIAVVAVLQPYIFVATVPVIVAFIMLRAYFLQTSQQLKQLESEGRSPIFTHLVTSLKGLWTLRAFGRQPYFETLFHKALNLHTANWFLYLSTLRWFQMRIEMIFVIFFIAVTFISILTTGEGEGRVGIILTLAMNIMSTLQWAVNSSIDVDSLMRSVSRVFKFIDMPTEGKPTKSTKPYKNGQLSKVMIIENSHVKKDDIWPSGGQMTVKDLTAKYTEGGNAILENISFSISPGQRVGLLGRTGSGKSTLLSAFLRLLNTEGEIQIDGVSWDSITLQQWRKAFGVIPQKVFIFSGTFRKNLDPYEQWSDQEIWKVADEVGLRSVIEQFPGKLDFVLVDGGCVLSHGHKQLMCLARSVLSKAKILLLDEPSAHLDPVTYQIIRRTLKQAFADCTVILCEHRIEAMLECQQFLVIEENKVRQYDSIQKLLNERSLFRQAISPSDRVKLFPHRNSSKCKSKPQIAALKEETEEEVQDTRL

| SMILES | short-circuit current (Ussing chamber), forskolin-activated; complete block at 1 (CFTR) | IC50 (hERG channel) | YFP iodide-influx quenching assay and short-circuit current (Ussing chamber) [1] |
| --- | --- | --- | --- |
| O=C(O)c1ccc(/C=C2\SC(=S)N(c3cccc(C(F)(F)F)c3)C2=O)cc1 [CFTRinh-172] | 10 µM |  |  |
| COc1ccc(-c2oc3cc(OC)c(OC)c(O)c3c(=O)c2OC)cc1O [vitexicarpin, 3′,5-dihydroxy-3,4′,6,7-tetramethoxyflavone] |  | 35.4 µM | vitexicarpin inhibited ANO1 activation in a dose-dependent manner (Figure 2A) |
